Measured values from patent publication US20050182242A1, “Global analysis of protein activities using proteome chips” (priority 2001, published 2005).

Test system: total yeast genomic DNA
Test: Yeast proteome chip probed with labeled genomic DNA
Assay type: binding
Details: Cy3-labeled genomic DNA, visual inspection
From the text: Protein-DNA and protein-RNA interactions are important for many fundamental biological functions such as transcription regulation, chromosome segregation and maintenance, and RNA transport and processing (Williamson, 2000, Nat. Struct. Biol. 7(10):834-7). To explore the possibility of using a proteome chip to identify proteins that bind to DNA or RNA molecules, total yeast genomic DNA was labeled using Cy3-CTP and Klenow fragment, and polyA^+ was labeled using a biotinylated psoralen-derivative (31). Each probe was incubated with a different proteome chip (FIG. 3A).
The protein-nucleic acid interaction was assayed as follows. The nucleic acid robes were labeled as described by Winzeler et al. (1999, Science 285:901). Blocked proteome chips were washed three to five times in PBS buffer, and the extra liquid on the glass surface was removed by tapping the slides vertically on a KIMWIPE™. 200 μl of labeled nuclei acid probe ([…] poly(dC/dG); 100-300 mM NaCl; 50-300 mM HEPES, pH 7.0-8.5; 10 mM MgCl2) was added to the proteome chip and immediately covered by a hydrophobic plastic cover slip (GRACE BIO-LABS™, USA). After trapped air bubbles were removed, the chip was incubated in a humidity chamber in the dark at room temperature (“RT”) for one hour. To remove the cover slip, the chip was immersed into large volume of PBS buffer(>50 ml), so that the slip would float away. […]

Substance: Gcd11p: gamma subunit of translation initiation factor eIF2
- binding of genomic DNA probe: tested positive
